# Experimental data from patent publication US12559454B2, “Benzenesulfonamide derivatives and uses thereof” (2692372 Ontario, Inc., priority 2019, dated 2026).
# What was measured:
# [1] = tested on: MV4-11 cells; test: CellTiter-Blue cell viability, MV-4-11; assay type: cell-based; conditions: Homo sapiens, 72 hrs exposure
# Procedure: (§1) Anti-cancer efficacy of exemplary compounds of this application was assessed in vitro in different cancer cell lines. Cell viability was examined following treatment at various concentration of inhibitor (0.097656-50 μM) using a cell Titer-Blue cell viability assay. 1×10^4 cells (NHF, MV4-11, K562 and MOLM-13 cells)/well were plated in 96-well assay plates in culture medium. All cells were grown in DMEM, IMDM and RPMI-1640 supplemented with 10% FBS. After 24 hrs, test compounds and vehicle controls were added to appropriate wells so the final volume was 100 μl in each well. The cells were cultured for the desired test exposure period (72 hrs) at 37° C. and 5% CO2. The assay plates were removed from 37° C. incubator and 20 μl/well of CellTiter-Blue® Reagent was added. The plates were incubated using standard cell culture conditions for 1-4 hours and the plates were shaken for 10 seconds and record fluorescence at 560/590 nm.
# [2] = tested on: K562 cells; test: CellTiter-Blue cell viability, K562; assay type: cell-based; conditions: Homo sapiens, 72 hrs exposure
# Procedure: as §1
# [3] = tested on: MOLM-13 cells; test: CellTiter-Blue cell viability, MOLM-13; assay type: cell-based; conditions: Homo sapiens, 72 hrs exposure
# Procedure: as §1
# [4] = tested on: tubulin; test: Tubulin polymerization assay; assay type: biochemical; conditions: for % Inhibition: Vmax normalized to tubulin only control; for % D.O.P.: degree of polymerization relative to tubulin control
# Procedure: A96-well half-area clear flat-bottom microplate (Corning® #3697) was pre-heated in a plate reader (Cytation 3, BioTek) at 37° C. for 15 minutes prior to the start of each assay. Tubulin polymerization buffer (80 mM PIPES pH 6.9, 2 mM MgCl2, 0.5 mM EGTA, 15% glycerol, 1 mM GTP) was prepared from stock solutions and placed on ice. Inhibitors were prepared to M concentrations in buffer (80 mM PIPES pH 6.9, 2 mM MgCl2, 0.5 mM EGTA, 5% DMSO) from DMSO stock solutions. After the assay plate was pre-warmed, 10 μL of inhibitor or buffer control was added to selected wells. Every assay contained a tubulin only negative control for normalization of data, and a batabulin positive control. The assay plate was incubated at 37° C. for 3 minutes. During this time, a frozen aliquot of tubulin (10 mg/mL) in buffer (80 mM PIPES pH 6.9, 2 mM MgCl2, 0.5 mM EGTA) was defrosted by placing in a room temperature water bath. Once thawed, 200 μL of tubulin was mixed with 420 μL ice cold tubulin polymerization buffer (3 mg/mL tubulin in 80 mM PIPES, pH 6.9, 2 mM MgCl2, 0.5 mM EGTA, 1 mM GTP, 10.2% glycerol). To a 96-well plate on ice, aliquots of 100 μL tubulin was added to each well. From this plate, 90 μL of tubulin was immediately pipetted into all sample wells of the warmed assay plate using a multi-channel pipette. The assay plate was immediately put in the reader at 37° C. and shook for 5 s with orbital shaking at medium speed. The reader recorded the absorbance at 340 nm every 15 s for 30 min.
# The resulting absorbance curves were normalized by subtracting each data point by the absorbance at time 0.
# The largest change in absorbance over the assay time course was also recorded and related to the tubulin control as the % degree of polymerization (% D.O.P.).
Structure (SMILES),IC50 [1] [µM],IC50 [2] [µM],IC50 [3] [µM],% Inhibition [4],% D.O.P. [4]
"CN(C)S(=O)(=O)c1c(O)c(F)c(F)c(F)c1F [Compound I-3, 2,3,4,5-tetrafluoro-6-hydroxy-N,N-dimethylbenzenesulfonamide]",> 10,> 10,,,
"COc1c(F)c(F)c(F)c(F)c1S(=O)(=O)N(C)C [Compound I-4, 2,3,4,5-tetrafluoro-6-methoxy-N,N-dimethylbenzenesulfonamide]",1 to 10,,,,
"CCOc1c(F)c(F)c(F)c(F)c1S(=O)(=O)N(C)C [Compound I-5, 2-ethoxy-3,4,5,6-tetrafluoro-N,N-dimethylbenzenesulfonamide]",,> 10,> 10,,
"CN(C)S(=O)(=O)c1c(F)c(F)c(F)c(F)c1OCC(F)(F)F [Compound I-10, 2,3,4,5-tetrafluoro-N,N-dimethyl-6-(2,2,2-trifluoroethoxy)benzenesulfonamide]",1 to 10,> 10,,,
"CN(C)S(=O)(=O)c1c(F)c(F)c(F)c(F)c1OCc1ccncc1 [Compound I-17, 2,3,4,5-tetrafluoro-N,N-dimethyl-6-(pyridin-4-ylmethoxy)benzenesulfonamide]",,> 10,1 to 10,,
"CN(C)S(=O)(=O)c1c(F)c(F)c(F)c(F)c1OC(=O)C(C)(C)C [Compound I-20, 2-(N,N-dimethylsulfamoyl)-3,4,5,6-tetrafluorophenyl pivalate]",,> 10,1 to 10,,
"COc1ccc(NS(=O)(=O)c2c(O)c(F)c(F)c(F)c2F)cc1F [Compound I-63, 2,3,4,5-tetrafluoro-N-(3-fluoro-4-methoxyphenyl)-6-hydroxybenzenesulfonamide]",> 10,> 10,,A (<10%),A (>85%)
"COc1ccc(NS(=O)(=O)c2c(F)c(F)c(F)c(F)c2OC(F)F)cc1F [Compound I-65, 2-(difluoromethoxy)-3,4,5,6-tetrafluoro-N-(3-fluoro-4-methoxyphenyl)benzenesulfonamide]",≤ 0.1,,0.1 to 1,C (>20%),B (< 85%)
"COc1ccc(NS(=O)(=O)c2c(F)c(F)c(F)c(F)c2OCCF)cc1F [Compound I-66, 2,3,4,5-tetrafluoro-N-(3-fluoro-4-methoxyphenyl)-6-(2-fluoroethoxy)benzenesulfonamide]",0.1 to 1,,1 to 10,B (10-20%),B (< 85%)
"COc1ccc(NS(=O)(=O)c2c(F)c(F)c(F)c(F)c2OC2CCC2)cc1F [Compound I-69, 2-cyclobutoxy-3,4,5,6-tetrafluoro-N-(3-fluoro-4-methoxyphenyl)benzenesulfonamide]",0.1 to 1,,,A (<10%),A (>85%)
"COc1ccc(NS(=O)(=O)c2c(F)c(F)c(F)c(F)c2OC2CCCC2)cc1F [Compound I-70, 2-(cyclopentyloxy)-3,4,5,6-tetrafluoro-N-(3-fluoro-4-methoxyphenyl)benzenesulfonamide]",> 10,,,A (<10%),A (>85%)
"COc1ccc(NS(=O)(=O)c2c(F)c(F)c(F)c(F)c2Oc2ccc(F)cc2)cc1F [Compound I-80, 2,3,4,5-tetrafluoro-N-(3-fluoro-4-methoxyphenyl)-6-(4-fluorophenoxy)benzenesulfonamide]",0.1 to 1,,,,
"COc1ccc(CN(Cc2ccc(OC)cc2)S(=O)(=O)c2c(O)c(F)c(F)c(F)c2F)cc1 [Compound I-82, 2,3,4,5-tetrafluoro-6-hydroxy-N,N-bis(4-methoxybenzyl)benzenesulfonamide]",,,,B (10-20%),A (>85%)
"COc1ccc(NS(=O)(=O)c2c(F)c(F)c(F)c(F)c2OC(F)(F)F)cc1F [Compound I-84, 2,3,4,5-tetrafluoro-N-(3-fluoro-4-methoxyphenyl)-6-(trifluoromethoxy)benzenesulfonamide]",≤ 0.1,,≤ 0.1,C (>20%),B (< 85%)
"CCOc1c(F)c(F)c(F)c(F)c1S(=O)(=O)Nc1ccc(OC)c(F)c1 [Compound I-85, 2-ethoxy-3,4,5,6-tetrafluoro-N-(3-fluoro-4-methoxyphenyl)benzenesulfonamide]",,,≤ 0.1,A (<10%),A (>85%)
"CNc1c(F)c(F)c(F)c(F)c1S(=O)(=O)Nc1ccc(OC)c(F)c1 [Compound I-86, 2,3,4,5-tetrafluoro-N-(3-fluoro-4-methoxyphenyl)-6-(methylamino)benzenesulfonamide]",0.1 to 1,,,A (<10%),A (>85%)
"COc1ccc(CNc2c(F)c(F)c(F)c(F)c2S(=O)(=O)Nc2ccc(OC)c(F)c2)cc1 [Compound I-87, 2,3,4,5-tetrafluoro-N-(3-fluoro-4-methoxyphenyl)-6-((4-methoxybenzyl)amino)benzenesulfonamide]",,,,A (<10%),A (>85%)
"COc1ccc(NS(=O)(=O)c2c(N)c(F)c(F)c(F)c2F)cc1F [Compound I-88, 2-amino-3,4,5,6-tetrafluoro-N-(3-fluoro-4-methoxyphenyl)benzenesulfonamide]",,,,A (<10%),A (>85%)
"O=S(=O)(Nc1ccccc1)c1c(F)c(F)c(F)c(F)c1OC1CC1 [Compound I-95, 2-cyclopropoxy-3,4,5,6-tetrafluoro-N-phenylbenzenesulfonamide]",1 to 10,,,,
"O=S(=O)(Nc1ccc(F)cc1)c1c(F)c(F)c(F)c(F)c1OC1CC1 [Compound I-96, 2-cyclopropoxy-3,4,5,6-tetrafluoro-N-(4-fluorophenyl)benzenesulfonamide]",0.1 to 1,,,A (<10%),A (>85%)
"O=S(=O)(Nc1ccc(F)cc1F)c1c(F)c(F)c(F)c(F)c1OC1CC1 [Compound I-97, 2-cyclopropoxy-N-(2,4-difluorophenyl)-3,4,5,6-tetrafluorobenzenesulfonamide]",> 10,,,,
"O=S(=O)(Nc1cc(F)c(F)cc1F)c1c(F)c(F)c(F)c(F)c1OC1CC1 [Compound I-98, 2-cyclopropoxy-3,4,5,6-tetrafluoro-N-(2,4,5-trifluorophenyl)benzenesulfonamide]",> 10,,,,
"O=S(=O)(Nc1cccc(Cl)c1)c1c(F)c(F)c(F)c(F)c1OC1CC1 [Compound I-99, N-(3-chlorophenyl)-2-cyclopropoxy-3,4,5,6-tetrafluorobenzenesulfonamide]",> 10,> 10,,,
"N#Cc1cccc(NS(=O)(=O)c2c(F)c(F)c(F)c(F)c2OC2CC2)c1 [Compound I-100, N-(3-cyanophenyl)-2-cyclopropoxy-3,4,5,6-tetrafluorobenzenesulfonamide]",> 10,> 10,,,
"N#Cc1ccc(NS(=O)(=O)c2c(F)c(F)c(F)c(F)c2OC2CC2)cc1 [Compound I-101, N-(4-cyanophenyl)-2-cyclopropoxy-3,4,5,6-tetrafluorobenzenesulfonamide]",> 10,,,,
"COC(=O)c1ccc(NS(=O)(=O)c2c(F)c(F)c(F)c(F)c2OC2CC2)cc1 [Compound I-102, methyl 4-((2-cyclopropoxy-3,4,5,6-tetrafluorophenyl)sulfonamido)benzoate]",0.1 to 1,> 10,,,
"O=S(=O)(Nc1ccc(Oc2ccccc2)cc1)c1c(F)c(F)c(F)c(F)c1OC1CC1 [Compound I-103, 2-cyclopropoxy-3,4,5,6-tetrafluoro-N-(4-phenoxyphenyl)benzenesulfonamide]",> 10,,,,
"O=S(=O)(Nc1cccc2ccccc12)c1c(F)c(F)c(F)c(F)c1OC1CC1 [Compound I-104, 2-cyclopropoxy-3,4,5,6-tetrafluoro-N-(naphthalen-1-yl)benzenesulfonamide]",> 10,,,,
"C#CCN(c1ccc(OC)c(F)c1)S(=O)(=O)c1c(F)c(F)c(F)c(F)c1OC1CC1 [Compound I-124, 2-cyclopropoxy-3,4,5,6-tetrafluoro-N-(3-fluoro-4-methoxyphenyl)-N-(prop-2-yn-1-yl)benzenesulfonamide]",1 to 10,1 to 10,,,
"CN(C)S(=O)(=O)c1c(F)c(F)c(F)c(F)c1OCCF [Compound I-125, 2,3,4,5-tetrafluoro-6-(2-fluoroethoxy)-N,N-dimethylbenzenesulfonamide]",1 to 10,> 10,,,
